Experimental data reported in patent publication US20030186943A1, “Substituted gamma-phenyl-delta-lactams and uses related thereto” (Inflazyme Pharmaceuticals Ltd., priority 1998, published 2003).

Legend:
[1] = tested on: T1, High Affinity Rolipram Binding Site of PDE4 in Mouse Brain; assay: Displacement of [3H]-rolipram from its high affinity binding site (HARBS)
T1 construct: other: mouse brain membranes, [3H]-Rolipram; X marks this range; other: mouse brain membranes, [3H]; Suspension was centrifuged twice at 30,000×G at 4° C. and the supernatant discarded

[2] = tested on: collagen-induced arthritis (CIA) in the mouse; assay: Murine collagen-induced arthritis model; type: in vivo
Description: Male DBA/1J mice (7-8 weeks of age) were immunized through a subcutaneous injection of 0.1 mL of a collagen-adjuvant emulsion (0.1 mg chick type II collagen in complete Freund's adjuvant) at the base of the tail. Mice were then randomly assigned to treatment or control groups in the following manner: Compound 43 (n=10); 45% 2-hydroxypropyl betacyclodextrin in 0.9% saline vehicle control (n-10); untreated (n=5) and dexamethasone positive control (n=5). After three weeks the animals were boosted with a second injection of chick type II collagen emulsified at 1.0 mg/mL in incomplete Freund's adjuvant. This second injection is required for reproducible induction of disease. In control animals, clinical signs of arthritis manifested as erythema and edema of the paws and tarsal/metatarsal joints usually appear within 1-2 weeks following the second immunization. Compounds were evaluated for their ability to delay the onset of or reduce the development of arthritis (prophylactic regime). Vehicle, dexamethasone positive control (0.075 mg/kg) and compound 43 (10 mg/kg) were administered twice daily (50 microliter per injection) by i.p. injection beginning on the day of the second collagen injection. The mice continued to receive doses until the last animal in the vehicle control group reached the seventh day of having established disease. In this particular case, this necessitated treatment for 25 days including the day of the booster injection.
The development of clinical arthritis (disease progression) was monitored daily after the second collagen injection. All four limbs were clinically evaluated by a trained observer unfamiliar (blinded) with the treatment group identity, and scored on a scale of 0-4 for disease severity (redness and swelling) according to the following criteria.
Inflammation was defined as any redness or swelling (enlargement) of any part of any paw. Established disease was defined as a qualitative score of paw inflammation of 2 or greater, that persists for at least 24 hours. In addition, paw widths for all four limbs were measured by a blinded observer daily using precision, constant tension calipers.
At the end of the study each animal was euthanized by an overdose of halothane anesthesia. Joints both distal to the knee and including the knee were dissected and analyzed by histology. Limb joints were fixed in 10% formalin buffer and decalcified in 10% formic acid for 48 hours, then processed for paraffin embedding. Serial sections (5-7 micrometer thick) were stained with haematoxylin and eosin (H & E). Histopathological alterations of the tarsal and metatarsal joints were graded “blind” by a certified pathologist and a score assigned based on a ranking system.
Mice were sacrificed on the 25th day after the second collagen injection corresponding to approximately the 10th day of established disease. All four paws from each animal in the study were removed, fixed and processed for blinded histopathological examination by an ACVP board certified veterinary pathologist. Joint pathology for each foot was classified on a scale of 0 to 4, with 0 being normal and 4 the most severely affected. Lesion grades were assigned based on the most severe lesion(s) present in the paw according to the following scale:
The individual paw scores were then summed to obtain a total for each animal with a maximum possible score for an animal being 16. Group values were obtained by averaging the individual animal scores.

[3] = 10 mg/kg i.p. twice daily, prophylactic, Day 25 after collagen boost

Compound: COc1cc(CC2C[C@@H](c3ccc(OC)c(OC4CCCC4)c3)COC2=O)ccc1O (stereo partly drawn) [Compound 43]
- times less potent than rolipram for interaction with the HARBS conformer of PDE4 [1]: approximately 28 fold
- IC50 ([1]; read-out: IC50 for displacement of 3H-rolipram from high-affinity binding site (HARBS activity), mouse brain): 0.25 µM
- reduction of arthritis score compared to the vehicle group ([2]; 10 mg/kg i.p. bid, day 25): 35%
- reduction of histopathological score compared to the vehicle group ([2]; 10 mg/kg i.p. bid, day 25): 29%
- reduction of paw edema compared to the vehicle group ([2]; 10 mg/kg i.p. bid, day 25): 42%
- Histopathological Score (range) ([2]; 10 mg/kg i.p. twice daily, Day 25, maximum possible score 16): 7.7 (1-15)
- Paw Arthritis Score [2, 3]: 3.3 ± .64
- Paw Edema (1/100 in.) [2, 3]: 0.052 ± .0051 1/100 in.
- rate of disease progression as assessed by paw score ([2]; 10 mg/kg i.p., bid, last 10 days of the study): significantly reduced
